Assay in all cases: growth of human tumour cells (NCI), 48 h
The test system of test [1] is NCI-H23 lung.
Test [2] deals with HT29 colon.
The test system of test [3] is IGROV1 ovarian.
Test [4] has as its system UACC-257 melanoma.
Test [5] deals with MOLT-4 leukemia.
The subject of test [6] is A549 NSCLC.
The test system of test [7] is SK-OV-3 ovarian.
In test [8] the test system is SNB-19 CNS.
Test [9] deals with HOP-62 NSCLC.
For test [10], the system named is SR leukemia.

The structures appear in SMILES notation.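 In this assay, cells in 96-well plates receive the compound at five concentrations for 48 hours. Endpoints are linearly interpolated between the surrounding concentrations. Here, GI50 denotes the concentration required for 50% inhibition of growth. TGI denotes the concentration required for complete inhibition of growth.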

As for `Cc1cc2c(=O)c3ccccc3[nH]c2c(C(N)=O)c1C`, the TGI in test [1], in test [2], in test [3], in [4], in [5] and in test [6] was over 100 µM throughout. The TGI in test [7] and in test [8] was over 100 µM throughout.

Take `COc1cc(OC)c2c(=O)cc(-c3ccc(OC)c(OC)c3OC)oc2c1`: the TGI in test [1], in [2], in [3], in test [4], in test [9] and in test [6] was over 100 µM throughout. Further, the TGI in test [7] and in test [8] was over 100 µM each time.

Regarding `NC1CCN(Cc2ccccc2)CC1`, the GI50 was over 100 µM in test [1]; over 100 µM in test [2]; 94.6 µM in [3]; over 100 µM in test [4]; over 100 µM in test [5]; over 100 µM in [6]. Moreover, the GI50 in [7], in test [10] and in [8] was over 100 µM each time. The TGI in test [1], in [2], in test [3], in [4], in [5] and in test [6] was over 100 µM in each case. The TGI in [7], in [10] and in test [8] was over 100 µM each time.

Regarding `C/C(N=NC(=S)N1CC2CCC(CC2)C1)=C1\C=CC=CN1O`, the TGI is over 100 µM in test [1]; over 57.9 µM in [2]; over 100 µM in [3]; 35.2 µM in test [4]; over 100 µM in [9]; 6.46 µM in test [5]. Also, the TGI in test [6] is over 68.8 µM; in test [7], over 100 µM; in [8], over 82.5 µM.

With `c1ccc2c(OCCSCCCCCCCCCCSCCOc3cccc4ccccc34)cccc2c1`, the TGI in test [1], in test [2], in [3], in test [4], in test [9] and in [5] was over 100 µM in each case. Also, the TGI in [6], in test [7] and in test [8] was over 100 µM each time.

As to `O=C(CC1C(=O)Nc2ccccc2S1=O)Nc1cc(Cl)ccc1Cl` (stereo unspecified), the TGI in test [1], in test [2], in test [3], in test [4], in test [5] and in [6] was over 100 µM throughout. Further, the TGI in test [10] and in [8] was over 100 µM each time.

Take `COc1ccc2c(c1OCC(=O)O)C(=O)C(CCC(=O)O)CC2` (stereo unspecified): the TGI in test [1], in [2], in test [3], in test [4], in test [9] and in test [5] was over 100 µM each time. Further, the TGI in [6], in test [7] and in [8] was over 100 µM throughout.

On to `COc1cc(N=Nc2ccc(O)c3ncccc23)c2ncccc2c1`, for which the GI50 in test [1] was 3.75 µM; in test [2] it was 6.65 µM; in [3], 3.67 µM; in [4], 10.9 µM; in [5], 3.5 µM; in test [6], 8.04 µM. The GI50 in test [7] is 5.57 µM; in [10] it was 2.2 µM; in test [8] it was 4.11 µM. The TGI in test [1], in test [2], in [3], in test [4], in test [5] and in test [6] was over 100 µM in each case. The TGI in test [7], in test [10] and in test [8] was over 100 µM throughout.

For `CCOC(=O)c1ccc(/C(C)=N/NC(N)=S)cc1`, the TGI in [1], in test [3], in [9], in test [5], in test [6] and in [7] was over 100 µM in each case. For the same compound, the TGI in test [8] was over 100 µM.

`COC(=O)/C(C#N)=C1\N=NNN1c1ccc(OC)cc1`: the TGI in test [1], in test [2], in test [3], in test [4], in test [5] and in test [6] was over 100 µM in each case. The TGI in test [7] and in test [8] was over 100 µM throughout.

`O=C(Nc1cccc(Cl)c1)C(=O)C(C(=O)c1ccc2ccccc2c1)C1OC(=O)c2ccccc21` (stereo unspecified): the TGI stood at 24.8 µM in [1]; 84.5 µM in test [2]; 96.3 µM in test [3]; 55.5 µM in [4]; 37.3 µM in test [9]; 23.6 µM in test [5]. In addition, the TGI was over 100 µM in test [6], over 100 µM in [7] and 28 µM in test [8].

Turning to `O=C(OC1CCC(=C2SCCCS2)[C@H]1C1SCCCS1)c1ccccc1` (stereo partly specified), the TGI in [1], in [2], in test [3], in [4], in [9] and in [5] was over 100 µM throughout. Further, the TGI in [6], in [7] and in test [8] was over 100 µM throughout.

As for `Cc1nc(Nc2ccc(Cl)cc2)sc1C(=O)NNC(=S)NN`, the TGI in [1] came to 33.4 µM; in test [3], 63 µM; in test [4] it was 27.3 µM; in test [9], 33 µM; in test [5] it was 58.6 µM; in [6] it was 39.6 µM. For the same compound, the TGI turned out to be 54 µM in test [7] and 34.8 µM in [8].

For the compound `COc1cc(C(=O)N2CCN(C(=O)c3cc(OC)c(OC)c(OC)c3)C2=S)cc(OC)c1OC`, the GI50 in test [1] was 18.7 µM; in test [2], 22.7 µM; in test [3], 24.7 µM; in [4], 21.7 µM; in test [9] it was 15.2 µM; in test [5], 23.5 µM. The figures for the GI50 in [6], in test [7] and in test [8] were 19.9 µM, 20.2 µM and 18.5 µM, respectively. Moreover, the TGI in test [1] is 37.5 µM; in test [2] it was 53.2 µM; in test [3] it was 56.6 µM; in [4], 43.9 µM; in test [9], 38.9 µM; in test [5], 58.4 µM. Moreover, the TGI in [6] is 56.7 µM; in test [7], 52.7 µM; in test [8], 38.1 µM.

As to `CCCCCCCCCCCCCCCC(=O)OCCOCCOCCOCc1ccccc1`, the TGI in test [1], in test [2], in test [3], in [4], in [9] and in test [6] was over 100 µM throughout. Besides, in test [8], the TGI is over 100 µM.

Turning to `CC(C)(C)c1cc(C(P(=O)(O)O)P(=O)(O)O)cc(C(C)(C)C)c1O`, the TGI in test [1], in [2], in test [3], in [4], in [9] and in test [5] was over 100 µM throughout. The TGI in test [6], in test [7] and in test [8] was over 100 µM in each case.

Turning to `CC1(C)COC(c2cccc3c2C(=O)c2cccc(Cl)c2-3)=N1`, the TGI in test [1], in [2], in test [3], in test [4], in test [5] and in test [6] was over 100 µM in each case. Besides, the TGI in test [7] and in test [8] was over 100 µM each time.

Regarding `COc1ccc(C(=O)Nc2ccc(O)c(=O)cc2)cc1`, the TGI in test [1] was over 100 µM; in test [2], 44.1 µM; in test [3], over 100 µM; in [4], over 100 µM; in test [9], over 100 µM; in test [6], over 100 µM. Besides, the TGI stood at 31.4 µM in [10] and 93.6 µM in test [8].

Take `CCN(CC)CCNc1nc(N)c(C#N)c(C#N)c1C#N`: the TGI in [1], in test [2], in test [3], in [4], in test [9] and in test [5] was over 10 µM each time. The TGI in [6], in test [7] and in test [8] was over 10 µM in each case.

`COc1cnc2c(c1)C(=O)c1c-2n(CCCNC2=NCCS2)c(=O)c2cc([N+](=O)[O-])ccc12`: in test [4], the GI50 was 0.575 µM and the TGI amounted to 3.28 µM.

For the compound `C=CCCCCC1CCC2CCC(CCCCC=C)N12` (stereo unspecified), the TGI in test [2] was 25.5 µM; in test [4], 29.3 µM; in [9] it was 33 µM; in test [5] it was 36.3 µM; in test [6], 30 µM; in test [10], 33.4 µM. The same compound had a TGI in [8] of 35.3 µM.
